Test results published in US11077120B2, “Prostaglandin receptor EP2 antagonists, derivatives, compositions, and uses related thereto” (Emory University, priority 2014, dated 2021).
Like-named read-outs stand apart in the source and are kept apart here.

Tests used:
human EP2 receptors = biological target: T1, human EP2 receptors (Homo sapiens, UniProt P43116); assay: cell-based cAMP TR-FRET assay, rightward shift of PGE2 concentration response curve (Schild KB), EP2; settings: for mechanism of antagonism of EP2: Schild regression analysis
T1 construct: expressed in transfected cells
Protocol: KB value indicates the antagonist concentration required for a twofold rightward shift in the PGE2 dose-response curve. Thus, a lower KB value indicates a higher inhibitory potency.
(§1) The synthesis was carried out starting from commercially available 2-methyl indole or 2-trifluoromethyl indoles (11a-c), which on treatment with bromoacetonitrile provided intermediates (12a-c), which then were subjected to lithium aluminum hydride to reduce cyanide to amines. […] Synthesized derivatives were tested by using a cAMP-derived TR-FRET assay, at single concentration (1 μM) to observe a rightward shift of PGE2 (an EP2 agonist) concentration response curve in a C6G cell line that overexpresses human EP2 receptors.
A lower KB value indicates a higher inhibitory potency.
(§2) Intracellular cAMP was measured with a cell-based homogeneous time-resolved fluorescence resonance energy transfer (TR-FRET) method (Cisbio Bioassays). […] Endogenous cAMP produced by cells competes with labeled cAMP for binding to the cAMP antibody and thus reduces the FRET signal. Cells stably expressing human DP1, EP2, EP4, or IP receptors were seeded into 384-well plates in 30 μl complete medium (4,000 cells/well) and grown overnight. The medium was carefully withdrawn and 10 μl Hanks' Buffered Salt Solution (HBSS) (Hyclone) containing 20 μM rolipram was added into the wells to block phosphodiesterases. The cells were incubated at room temperature for 0.5-1 h and then treated with vehicle or test compound for 10 min before addition of increasing concentrations of appropriate agonist: BW245C for DP1, PGE2 for EP2 and EP4, or iloprost for IP. The cells were incubated at room temperature for 40 min, then lysed in 10 μl lysis buffer containing the FRET acceptor cAMP-d2 and 1 min later another 10 μl lysis buffer with anti-cAMP-Cryptate was added. After 60-90 min incubation at room temperature, the FRET signal was measured by an Envision 2103 Multilabel Plate Reader (PerkinElmer Life Sciences) with a laser excitation at 337 nm and dual emissions at 665 nm and 590 nm for d2 and Cryptate (50 s delay), respectively. The FRET signal was expressed as: F665/F590×10^4.

human DP1 receptors = biological target: T2, human DP1 receptors (Homo sapiens, UniProt Q13258); assay: cell-based cAMP TR-FRET assay, DP1 (agonist BW245C); settings: for selectivity against DP1: EP2 over DP1
T2 construct: expressed in transfected cells
T2 sequence (Q13258 1-359): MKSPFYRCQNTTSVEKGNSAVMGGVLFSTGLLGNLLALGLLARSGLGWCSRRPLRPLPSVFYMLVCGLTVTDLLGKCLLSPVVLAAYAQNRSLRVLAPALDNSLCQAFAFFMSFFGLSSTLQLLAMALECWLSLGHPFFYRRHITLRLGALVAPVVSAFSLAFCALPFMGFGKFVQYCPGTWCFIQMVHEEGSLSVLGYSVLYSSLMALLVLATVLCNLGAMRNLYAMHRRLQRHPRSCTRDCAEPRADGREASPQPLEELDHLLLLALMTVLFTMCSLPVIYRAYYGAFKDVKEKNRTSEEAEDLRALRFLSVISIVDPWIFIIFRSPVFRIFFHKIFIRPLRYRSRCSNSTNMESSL
Protocol: as §1
as §2, with “After 60-90 min incubation at room temperature, the FRET signal was measured by an Envision 2103 Multilabel Plate Reader (PerkinElmer Life Sciences) with a laser excitation at 337 nm and dual emissions at 665 nm and 590 nm for d2 and Cryptate (50 s delay), respectively.” left out

C6-glioma cells = settings: rat
Protocol: CC50 are average one measurement run in triplicate.
Several of compounds were examined against EP4 and IP receptors at single concentration of 10 μM.

human IP receptors = biological target: T3, human IP receptors (Homo sapiens, UniProt P43119); assay: cell-based cAMP TR-FRET assay, IP (agonist iloprost); settings: for potency estimated from few doses / Selective Index (IP/EP2): Table 2; for potency estimated from few doses: extrapolated Schild KB from single concentration of 10 μM
T3 construct: expressed in transfected cells
Protocol: (§3) These derivatives were selected for testing against EP4 and IP receptors. Cell lines were created that overexpress EP4 receptors, or IP receptors on C6-glioma cells. A cAMP-derived TR-FRET assay was developed using agonists PGE2 (for EP4) and iloprost (for IP), similar to EP2 assay.
as §2

human EP4 receptors = biological target: T4, human EP4 receptors (Homo sapiens, UniProt P35408); assay: cell-based cAMP TR-FRET assay, EP4 (agonist PGE2); settings: for potency estimated from few doses / Selective Index EP4/EP2: Table 2; for potency estimated from few doses: extrapolated Schild KB from single concentration of 10 μM
T4 construct: expressed in transfected cells
Protocol: as §3, §2

[1] = Table 1, Schild KB from single antagonist concentration 1 μM, average of 2-3 measurements in duplicate, read-out: EP2 KB
[2] = Table 2, average of 2-3 independent experiments in duplicate, read-out: KB EP2

T4 sequence (P35408 whole entry): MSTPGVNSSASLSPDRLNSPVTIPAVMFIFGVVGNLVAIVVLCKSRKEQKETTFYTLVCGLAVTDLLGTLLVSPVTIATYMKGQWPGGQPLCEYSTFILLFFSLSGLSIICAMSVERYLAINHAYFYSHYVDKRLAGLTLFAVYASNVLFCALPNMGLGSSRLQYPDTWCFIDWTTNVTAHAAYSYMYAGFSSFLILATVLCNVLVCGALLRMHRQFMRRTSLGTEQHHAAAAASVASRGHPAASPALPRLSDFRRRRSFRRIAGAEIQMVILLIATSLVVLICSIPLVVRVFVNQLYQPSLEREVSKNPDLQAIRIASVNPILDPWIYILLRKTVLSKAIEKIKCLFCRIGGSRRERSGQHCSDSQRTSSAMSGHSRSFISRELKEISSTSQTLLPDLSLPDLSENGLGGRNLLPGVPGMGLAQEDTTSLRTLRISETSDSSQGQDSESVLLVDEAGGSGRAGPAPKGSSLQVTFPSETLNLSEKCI
T3 sequence (P43119 whole entry): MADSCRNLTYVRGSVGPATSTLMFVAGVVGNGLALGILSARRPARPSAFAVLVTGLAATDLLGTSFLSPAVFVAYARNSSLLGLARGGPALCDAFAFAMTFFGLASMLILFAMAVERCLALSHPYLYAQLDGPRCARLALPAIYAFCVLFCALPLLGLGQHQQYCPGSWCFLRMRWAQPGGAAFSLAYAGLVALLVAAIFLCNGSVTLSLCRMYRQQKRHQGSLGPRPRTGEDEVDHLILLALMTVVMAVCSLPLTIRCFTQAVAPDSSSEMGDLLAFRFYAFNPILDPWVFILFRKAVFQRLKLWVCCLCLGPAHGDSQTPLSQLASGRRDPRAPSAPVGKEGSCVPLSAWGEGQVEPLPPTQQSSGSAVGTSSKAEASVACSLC
T1 sequence (P43116 whole entry): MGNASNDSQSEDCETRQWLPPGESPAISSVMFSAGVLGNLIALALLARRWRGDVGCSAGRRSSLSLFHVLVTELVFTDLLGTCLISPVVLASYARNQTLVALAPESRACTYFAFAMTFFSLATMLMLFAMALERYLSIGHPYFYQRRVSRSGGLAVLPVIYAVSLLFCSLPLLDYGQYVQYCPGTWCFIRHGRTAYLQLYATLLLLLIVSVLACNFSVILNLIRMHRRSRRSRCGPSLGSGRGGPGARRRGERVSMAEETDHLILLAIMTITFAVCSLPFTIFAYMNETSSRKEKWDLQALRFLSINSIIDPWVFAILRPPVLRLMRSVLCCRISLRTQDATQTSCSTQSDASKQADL

COc1ccc(C(=O)NCCn2c(C)cc3ccccc32)cc1OC [Compound 6b]
Kb (human EP2 receptors; [1]): 22.3 nM
Kb (human EP2 receptors; Table 6, read-out: EP2 KB): 26.7 nM
Kb (human DP1 receptors; Table 6, read-out: DP1 KB): 1.35 µM

Cc1cc2ccccc2n1CCNC(=O)c1ccc(N(C)C)cc1 [Compound 6e, 4-(Dimethylamino)-N-(2-(2-methyl-1H-indol-1-yl)ethyl)benzamide]
Kb (human EP2 receptors; [1]): 9.8 nM
CC50 (C6-glioma cells): 310 µM
potency estimated from few doses (human IP receptors): 4.7 µM
potency estimated from few doses (human EP4 receptors): 51 µM
Kb (human DP1 receptors; Table 2, read-out: KB DP1): 6.43 µM

CCN(CC)c1ccc(C(=O)NCCn2c(C)cc3ccccc32)cc1 [Compound 6f, 4-(Diethylamino)-N-(2-(2-methyl-1H-indol-1-yl)ethyl)benzamide]
fold improved/higher EP2 potency in comparison to 6b (human EP2 receptors): ~8 fold
mechanism of antagonism of EP2 (human EP2 receptors): competitive
Kb (human EP2 receptors; [2]): 2.7 nM
Kb (human EP2 receptors; single concentration values, read-out: EP2 potency (Schild KB)): ~10 nM
CC50 (C6-glioma cells): 320 µM
Therapeutic Index (CC50/EP2 KB) (C6-glioma cells): 118,520
selectivity against the IP receptor (human IP receptors; EP2 over IP): ~3000 fold
Selective Index (IP/EP2) (human IP receptors): 2,960
potency estimated from few doses (human IP receptors): 8 µM
Selective Index EP4/EP2 (human EP4 receptors): 11,590
potency estimated from few doses (human EP4 receptors): 31.3 µM
selectivity against DP1 (human DP1 receptors): > 1200 fold
Selective Index (DP1/EP2) (human DP1 receptors; Table 2): 1,220
Kb (human DP1 receptors; Table 2, read-out: KB DP1): 3.19 µM

CCCN(CCC)c1ccc(C(=O)NCCn2c(C)cc3ccccc32)cc1 [Compound 6g]
CC50 (C6-glioma cells): 332 µM
Therapeutic Index (CC50/EP2 KB) (C6-glioma cells): 28,130
Selective Index (IP/EP2) (human IP receptors): 95
potency estimated from few doses (human IP receptors): 1.12 µM
Selective Index EP4/EP2 (human EP4 receptors): 1320
potency estimated from few doses (human EP4 receptors): 15.5 µM
Selective Index (DP1/EP2) (human DP1 receptors; Table 2): 298

Cc1cc2ccccc2n1CCNC(=O)c1ccc(N2CCCC2)cc1 [Compound 7j, N-(2-(2-Methyl-1H-indol-1-yl)ethyl)-4-(pyrrolidin-1-yl)benzamide]
Kb (human EP2 receptors; [2]): 24.7 nM
CC50 (C6-glioma cells): 337 µM
Therapeutic Index (CC50/EP2 KB) (C6-glioma cells): 16,120
Selective Index (IP/EP2) (human IP receptors): 570
potency estimated from few doses (human IP receptors): 14.2 µM
Selective Index EP4/EP2 (human EP4 receptors): 1,160
potency estimated from few doses (human EP4 receptors): 28.7 µM
selectivity against DP1 (human DP1 receptors): 516 fold
Selective Index (DP1/EP2) (human DP1 receptors; Table 2): >516
Kb (human DP1 receptors; Table 2, read-out: KB DP1): > 10 µM

Cc1cc2ccccc2n1CCNC(=O)c1ccc(N2CCCCC2)cc1 [Compound 7k, N-(2-(2-Methyl-1H-indol-1-yl)ethyl)-4-(piperidin-1-yl)benzamide]
fold improved/higher EP2 potency in comparison to 6b (human EP2 receptors): about 2.3 fold
Kb (human EP2 receptors; [1]): 9.4 nM
CC50 (C6-glioma cells): 315 µM
Therapeutic Index (CC50/EP2 KB) (C6-glioma cells): 33,510
Selective Index (IP/EP2) (human IP receptors): 360
potency estimated from few doses (human IP receptors): 3.4 µM
Selective Index EP4/EP2 (human EP4 receptors): 3,210
potency estimated from few doses (human EP4 receptors): 30.2 µM
Selective Index (DP1/EP2) (human DP1 receptors; Table 2): 273
Kb (human DP1 receptors; Table 2, read-out: KB DP1): 2.57 µM

Cc1cc2ccccc2n1CCNC(=O)c1ccc(N2CCCCCC2)cc1 [Compound 7o]
CC50 (C6-glioma cells): 327 µM
Therapeutic Index (CC50/EP2 KB) (C6-glioma cells): 14,470
Selective Index (IP/EP2) (human IP receptors): 375
potency estimated from few doses (human IP receptors): 8.5 µM
Selective Index EP4/EP2 (human EP4 receptors): 1,045
potency estimated from few doses (human EP4 receptors): 23.6 µM
Selective Index (DP1/EP2) (human DP1 receptors; Table 2): 342

Cc1cc2ccccc2n1CCNC(=O)c1ccc(N2CCOCC2)cc1 [Compound 7p, N-(2-(2-Methyl-1H-indol-1-yl)ethyl)-4-morpholinobenzamide]
fold improved/higher EP2 potency in comparison to 6b (human EP2 receptors): about 2.3 fold
mechanism of antagonism of EP2 (human EP2 receptors): competitive
Kb (human EP2 receptors; [1]): 9.6 nM
CC50 (C6-glioma cells): 289 µM
Therapeutic Index (CC50/EP2 KB) (C6-glioma cells): 30,100
Selective Index (IP/EP2) (human IP receptors): 206
potency estimated from few doses (human IP receptors): 1.98 µM
Selective Index EP4/EP2 (human EP4 receptors): 2,190
potency estimated from few doses (human EP4 receptors): 21 µM
Selective Index (DP1/EP2) (human DP1 receptors; Table 2): 533
Kb (human DP1 receptors; Table 2, read-out: KB DP1): 5.21 µM

Cc1cc2ccccc2n1CCNC(=O)c1ccc(N2CCN(C)CC2)c(F)c1 [Compound 7u]
CC50 (C6-glioma cells): 300 µM
Therapeutic Index (CC50/EP2 KB) (C6-glioma cells): 6,660
Selective Index (IP/EP2) (human IP receptors): 1,420
potency estimated from few doses (human IP receptors): 64 µM
selectivity over EP4 (human EP4 receptors; EP2 over EP4): 100 fold
Selective Index EP4/EP2 (human EP4 receptors): 106
potency estimated from few doses (human EP4 receptors): 4.76 µM
Selective Index (DP1/EP2) (human DP1 receptors; Table 2): 22

Cc1cc2ccccc2n1CCNC(=O)c1ccc(N2CCC(O)CC2)cc1 [Compound 7w]
CC50 (C6-glioma cells): 163 µM
Therapeutic Index (CC50/EP2 KB) (C6-glioma cells): 6,082
concentration showing an effect on cell viability (C6-glioma cells): > 100 µM
Selective Index (IP/EP2) (human IP receptors): 675
potency estimated from few doses (human IP receptors): 18.1 µM
Selective Index EP4/EP2 (human EP4 receptors): 2,629
potency estimated from few doses (human EP4 receptors): 70.3 µM
Selective Index (DP1/EP2) (human DP1 receptors; Table 2): 172

Cc1[nH]c2ccccc2c1CCNC(=O)c1ccc(N(C)C)cc1 [Compound 8z]
CC50 (C6-glioma cells): 320 µM
potency estimated from few doses (human IP receptors): 63.1 µM
potency estimated from few doses (human EP4 receptors): 16.4 µM

Cc1[nH]c2ccccc2c1CCNC(=O)c1ccc(N2CCOCC2)cc1 [Compound 9c]
CC50 (C6-glioma cells): 311 µM

Cc1cc2ccccc2n1CCNC(=O)c1cc(-c2ccccc2)no1 [TG7-242]
Kb (human EP2 receptors; Table 6, read-out: EP2 KB): 29.5 nM
DP1 KB (human DP1 receptors; Table 6): Inactive
